{"source": "paper PMC7413254", "about": "(Nature Communications, 2020)", "key": {"non-expressing oocytes [1]": {"test_system": "non-expressing oocytes", "assay": "cells", "type": "cell-based, Xenopus laevis", "details": "non-expressing oocytes, total [3H]CQ transport, normalised to the oocyte type control", "in_short": "(§1)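 ND96, pH 5.5, 1.5 h, 27.5 °C; uptake direction acidic outside → oocyte cytosol, mimicking efflux from digestive vacuole. Ice-cold wash stop, 10% SDS lysis, scintillation counting. Ten oocytes/treatment, ≥4 independent experiments.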"}, "PfCRT^3D7 [2]": {"biological_target": "T1, PfCRT^3D7 (Plasmodium falciparum, UniProt Q8IBZ9)", "T1 sequence (Q8IBZ9 59-398)": "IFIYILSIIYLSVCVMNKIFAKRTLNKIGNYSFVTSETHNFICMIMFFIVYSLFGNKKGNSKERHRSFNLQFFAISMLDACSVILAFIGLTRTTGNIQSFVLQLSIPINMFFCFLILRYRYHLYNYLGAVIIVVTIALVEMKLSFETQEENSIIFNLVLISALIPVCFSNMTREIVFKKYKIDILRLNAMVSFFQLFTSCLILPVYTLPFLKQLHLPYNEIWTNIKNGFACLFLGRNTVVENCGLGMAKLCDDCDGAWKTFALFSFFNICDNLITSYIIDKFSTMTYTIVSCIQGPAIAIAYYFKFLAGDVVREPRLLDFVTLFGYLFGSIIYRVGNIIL", "assay": "cell-based", "type": "cell-based", "details": "PfCRT3D7 oocytes, total [3H]CQ transport, normalised to the oocyte type control", "in_short": "as §1"}, "PfCRT^Dd2 [3]": {"biological_target": "T2, PfCRT^Dd2 (Plasmodium falciparum, UniProt Q9N623, A220S/I356T/K76T/M74I/N326S/N75E/Q271E/R371I)", "T2 sequence (Q9N623 whole entry A220S/I356T/K76T/M74I/N326S/N75E/Q271E/R371I)": "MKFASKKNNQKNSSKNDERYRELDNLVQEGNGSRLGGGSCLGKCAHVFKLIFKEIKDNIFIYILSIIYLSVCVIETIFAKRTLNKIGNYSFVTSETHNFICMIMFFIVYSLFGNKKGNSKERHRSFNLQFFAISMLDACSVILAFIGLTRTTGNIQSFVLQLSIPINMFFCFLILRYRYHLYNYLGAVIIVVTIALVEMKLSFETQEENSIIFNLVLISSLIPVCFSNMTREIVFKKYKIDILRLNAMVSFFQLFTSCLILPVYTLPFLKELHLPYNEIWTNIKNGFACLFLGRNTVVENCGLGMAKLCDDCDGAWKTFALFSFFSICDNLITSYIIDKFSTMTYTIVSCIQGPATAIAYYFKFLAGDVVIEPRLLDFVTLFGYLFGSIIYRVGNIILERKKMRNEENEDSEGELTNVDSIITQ", "assay": "[3H]CQ uptake into Xenopus oocytes, cis-inhibition by unlabelled solute", "type": "cell-based", "details": "PfCRTDd2 oocytes, background [3H]CQ accumulation subtracted, normalised to oocyte type control", "in_short": "as §1"}, "PfCRT^Ecu1110 [4]": {"biological_target": "T3, PfCRT^Ecu1110 (Plasmodium falciparum, UniProt Q9N623, A220S/I356L/K76T/N326D)", "T3 sequence (Q9N623 whole entry A220S/I356L/K76T/N326D)": "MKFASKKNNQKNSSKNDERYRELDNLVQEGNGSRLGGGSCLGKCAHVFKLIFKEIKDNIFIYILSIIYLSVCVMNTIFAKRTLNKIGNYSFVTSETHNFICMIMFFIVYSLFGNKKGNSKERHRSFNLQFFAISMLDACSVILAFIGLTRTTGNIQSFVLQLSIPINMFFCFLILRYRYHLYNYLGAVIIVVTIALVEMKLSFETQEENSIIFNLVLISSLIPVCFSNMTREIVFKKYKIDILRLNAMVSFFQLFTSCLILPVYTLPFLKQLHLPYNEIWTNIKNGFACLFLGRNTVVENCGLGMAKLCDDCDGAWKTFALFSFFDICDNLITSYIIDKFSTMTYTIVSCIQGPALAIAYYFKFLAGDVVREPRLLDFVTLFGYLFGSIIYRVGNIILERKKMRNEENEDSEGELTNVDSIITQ", "assay": "[3H]CQ uptake into Xenopus oocytes, cis-inhibition by unlabelled solute", "type": "cell-based", "details": "for Uptake of [3H]CQ (% PfCRTEcu1110 control), cis-inhibition / PfCRT-mediated [3H]CQ transport, cis-inhibition (% PfCRTEcu1110 control): PfCRTEcu1110 oocytes; for Uptake of [3H]CQ (% PfCRTEcu1110 control), cis-inhibition: total [3H]CQ transport, normalised to the oocyte type control; for PfCRT-mediated [3H]CQ transport, cis-inhibition (% PfCRTEcu1110 control): background [3H]CQ accumulation subtracted, normalised to oocyte type control; for [3H]CQ transport (% PfCRTEcu1110 control), cis-inhibition, PfCRTEcu1110: PfCRT-mediated component (background subtracted), sheet title says normalised to PfCRTDd2 control, mean ± SEM, SEM", "in_short": "as §1"}, "non-expressing oocytes [5]": {"test_system": "non-expressing oocytes", "type": "cell-based, Xenopus laevis", "details": "non-expressing oocytes, total [3H]CQ transport, normalised to the oocyte type control", "in_short": "(§2)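 Oocytes (ten per treatment, ≥4 independent frogs/days) were preloaded by injecting VF-6 in 25 nL ND96 at pH 5.0, 5.5, 6.0 or 7.0, or Na^+-free choline buffer, then uptake run 1.5 h, 27.5 °C, ND96 pH 5.5 by default. Internal concentrations assumed ~400 nL oocyte volume.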"}, "PfCRT^3D7 [6]": {"biological_target": "T1, PfCRT^3D7", "assay": "cell-based", "type": "cell-based", "details": "PfCRT3D7 oocytes; for Uptake of [3H]CQ (% PfCRT3D7 control), trans-stimulation: total [3H]CQ transport, normalised to the oocyte type control; for PfCRT-mediated [3H]CQ transport, trans-stimulation (% PfCRT3D7 control): normalised to oocyte type control", "in_short": "as §2"}, "PfCRT^Dd2 [7]": {"biological_target": "T2, PfCRT^Dd2", "assay": "cell-based", "type": "cell-based", "details": "for PfCRT-mediated [3H]CQ transport, trans-stimulation (% PfCRTDd2 control): normalised to oocyte type control; for [3H]CQ transport (% PfCRTDd2 control), trans-stimulation, PfCRTDd2: PfCRT-mediated component (background subtracted), mean ± SEM, SEM", "in_short": "as §2"}, "PfCRT^Ecu1110 [8]": {"biological_target": "T3, PfCRT^Ecu1110", "assay": "cell-based", "type": "cell-based", "details": "for Uptake of [3H]CQ (% PfCRTEcu1110 control), trans-stimulation / PfCRT-mediated [3H]CQ transport, trans-stimulation (% PfCRTEcu1110 control): PfCRTEcu1110 oocytes; for Uptake of [3H]CQ (% PfCRTEcu1110 control), trans-stimulation: total [3H]CQ transport, normalised to the oocyte type control; for PfCRT-mediated [3H]CQ transport, trans-stimulation (% PfCRTEcu1110 control): normalised to oocyte type control; for [3H]CQ transport (% PfCRTDd2 control), trans-stimulation, PfCRTEcu1110: PfCRT-mediated component (background subtracted), sheet title says normalised to PfCRTDd2 control, mean ± SEM, SEM", "in_short": "as §2"}, "PfNT1": {"biological_target": "T4, PfNT1 (Plasmodium falciparum, UniProt Q8IDM6)", "T4 construct": "expressed in transfected cells; host or cells: Xenopus laevis oocytes (stage V-VI), cRNA-injected", "T4 sequence (Q8IDM6 whole entry)": "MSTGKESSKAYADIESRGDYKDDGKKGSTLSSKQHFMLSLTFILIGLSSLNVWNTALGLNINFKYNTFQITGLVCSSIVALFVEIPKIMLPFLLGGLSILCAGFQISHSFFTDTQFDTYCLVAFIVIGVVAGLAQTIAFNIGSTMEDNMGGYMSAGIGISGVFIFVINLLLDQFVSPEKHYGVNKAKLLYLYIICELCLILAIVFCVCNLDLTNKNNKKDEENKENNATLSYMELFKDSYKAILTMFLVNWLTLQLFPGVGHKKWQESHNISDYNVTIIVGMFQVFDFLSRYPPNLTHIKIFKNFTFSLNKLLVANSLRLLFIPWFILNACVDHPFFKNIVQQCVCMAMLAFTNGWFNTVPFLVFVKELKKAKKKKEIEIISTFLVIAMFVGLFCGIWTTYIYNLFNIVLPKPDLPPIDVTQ", "assay": "cell-based", "type": "cell-based", "details": "PfNT1 oocytes, total [3H]CQ transport, normalised to the oocyte type control", "in_short": "as §2"}, "[9]": {"details": "[test solute]i = 45 mM (30 mM for some solutes due to solubility)"}, "[10]": {"details": "[test solute]i = 5 mM (intracellular)"}, "[11]": {"details": "[test solute]i = 45 mM (intracellular; 30 mM for some solutes due to solubility)"}, "[12]": {"details": "[test solute]i = 5 mM (injected)"}}, "note": "Read-outs that look alike come from different tables or passages of the source.", "data": [{"substance": "GGYR [GR-4]", "values": [{"measurement": "Uptake of [3H]CQ (% non-expressing oocyte control), cis-inhibition", "setting": "non-expressing oocytes [1]; [test solute] = 0.5 mM", "result": "99 ± 5.2 % non-expressing oocyte control"}, {"measurement": "Uptake of [3H]CQ (% non-expressing oocyte control), cis-inhibition", "setting": "non-expressing oocytes [1]; [test solute] = 2 mM", "result": "100 ± 3.6 % non-expressing oocyte control"}, {"measurement": "Uptake of [3H]CQ (% PfCRT3D7 control), cis-inhibition", "setting": "PfCRT^3D7 [2]; [test solute] = 0.5 mM", "result": "102 ± 4.3", "unit": "% PfCRT3D7 control"}, {"measurement": "Uptake of [3H]CQ (% PfCRT3D7 control), cis-inhibition", "setting": "PfCRT^3D7 [2]; [test solute] = 1 mM", "result": "98 ± 4.8", "unit": "% PfCRT3D7 control"}, {"measurement": "Uptake of [3H]CQ (% PfCRT3D7 control), cis-inhibition", "setting": "PfCRT^3D7 [2]; [test solute] = 2 mM", "result": "102 ± 5.8", "unit": "% PfCRT3D7 control"}, {"measurement": "PfCRT-mediated [3H]CQ transport, cis-inhibition (% PfCRTDd2 control)", "setting": "PfCRT^Dd2 [3]; [test solute] = 0.5 mM", "result": "71 ± 2.9", "unit": "% PfCRTDd2 control"}, {"measurement": "PfCRT-mediated [3H]CQ transport, cis-inhibition (% PfCRTDd2 control)", "setting": "PfCRT^Dd2 [3]; [test solute] = 1 mM", "result": "58 ± 4.2", "unit": "% PfCRTDd2 control"}, {"measurement": "PfCRT-mediated [3H]CQ transport, cis-inhibition (% PfCRTDd2 control)", "setting": "PfCRT^Dd2 [3]; [test solute] = 2 mM", "result": "40 ± 2.1", "unit": "% PfCRTDd2 control"}, {"measurement": "Uptake of [3H]CQ (% PfCRTEcu1110 control), cis-inhibition", "setting": "PfCRT^Ecu1110 [4]; [test solute] = 0.5 mM", "result": "78 ± 6.9", "unit": "% PfCRTEcu1110 control"}, {"measurement": "Uptake of [3H]CQ (% PfCRTEcu1110 control), cis-inhibition", "setting": "PfCRT^Ecu1110 [4]; [test solute] = 1 mM", "result": "65 ± 7.1", "unit": "% PfCRTEcu1110 control"}, {"measurement": "Uptake of [3H]CQ (% PfCRTEcu1110 control), cis-inhibition", "setting": "PfCRT^Ecu1110 [4]; [test solute] = 2 mM", "result": "53 ± 4.7", "unit": "% PfCRTEcu1110 control"}, {"measurement": "PfCRT-mediated [3H]CQ transport, cis-inhibition (% PfCRTEcu1110 control)", "setting": "PfCRT^Ecu1110 [4]; [test solute] = 0.5 mM", "result": "71 ± 2.5", "unit": "% PfCRTEcu1110 control"}, {"measurement": "PfCRT-mediated [3H]CQ transport, cis-inhibition (% PfCRTEcu1110 control)", "setting": "PfCRT^Ecu1110 [4]; [test solute] = 1 mM", "result": "59 ± 2.4", "unit": "% PfCRTEcu1110 control"}, {"measurement": "PfCRT-mediated [3H]CQ transport, cis-inhibition (% PfCRTEcu1110 control)", "setting": "PfCRT^Ecu1110 [4]; [test solute] = 2 mM", "result": "48 ± 3.1", "unit": "% PfCRTEcu1110 control"}, {"measurement": "[3H]CQ transport (% PfCRTEcu1110 control), cis-inhibition, PfCRTEcu1110", "setting": "PfCRT^Ecu1110 [4]; [test solute] = 1 mM", "result": "19 ± 0.1", "unit": "% PfCRTEcu1110 control"}, {"measurement": "[3H]CQ transport (% PfCRTEcu1110 control), cis-inhibition, PfCRTEcu1110", "setting": "PfCRT^Ecu1110 [4]; [test solute] = 2 mM", "result": "15 ± 0.6", "unit": "% PfCRTEcu1110 control"}, {"measurement": "Uptake of [3H]CQ (% non-expressing oocyte control), trans-stimulation", "setting": "non-expressing oocytes [5]; [test solute]i = 5 mM", "result": "100 ± 2.7 % non-expressing oocyte control"}, {"measurement": "Uptake of [3H]CQ (% non-expressing oocyte control), trans-stimulation", "setting": "non-expressing oocytes [5]; [9]", "result": "97 ± 2.5 % non-expressing oocyte control"}, {"measurement": "Uptake of [3H]CQ (% PfCRT3D7 control), trans-stimulation", "setting": "PfCRT^3D7 [6]; [test solute]i = 5 mM", "result": "100 ± 2.6", "unit": "% PfCRT3D7 control"}, {"measurement": "Uptake of [3H]CQ (% PfCRT3D7 control), trans-stimulation", "setting": "PfCRT^3D7 [6]; [9]", "result": "99 ± 2.6", "unit": "% PfCRT3D7 control"}, {"measurement": "PfCRT-mediated [3H]CQ transport, trans-stimulation (% PfCRT3D7 control)", "setting": "PfCRT^3D7 [6]; [10]", "result": "98 ± 3.3", "unit": "% PfCRT3D7 control"}, {"measurement": "PfCRT-mediated [3H]CQ transport, trans-stimulation (% PfCRT3D7 control)", "setting": "PfCRT^3D7 [6]; [11]", "result": "97 ± 4.2", "unit": "% PfCRT3D7 control"}, {"measurement": "Uptake of [3H]CQ (% PfCRTDd2 control), trans-stimulation", "setting": "PfCRT^Dd2 [7]; PfCRTDd2 oocytes, [test solute]i = 45 mM (30 mM for some solutes due to solubility), total [3H]CQ transport, normalised to the oocyte type control", "result": "103 ± 3.6", "unit": "% PfCRTDd2 control"}, {"measurement": "PfCRT-mediated [3H]CQ transport, trans-stimulation (% PfCRTDd2 control)", "setting": "PfCRT^Dd2 [7]; [test solute]i = 5 mM (intracellular), PfCRTDd2 oocytes", "result": "99 ± 2.9", "unit": "% PfCRTDd2 control"}, {"measurement": "PfCRT-mediated [3H]CQ transport, trans-stimulation (% PfCRTDd2 control)", "setting": "PfCRT^Dd2 [7]; [test solute]i = 45 mM (intracellular; 30 mM for some solutes due to solubility), PfCRTDd2 oocytes", "result": "100 ± 4.9", "unit": "% PfCRTDd2 control"}, {"measurement": "[3H]CQ transport (% PfCRTDd2 control), trans-stimulation, PfCRTDd2", "setting": "PfCRT^Dd2 [7]; [12]", "result": "99 ± 2.9", "unit": "% PfCRTDd2 control"}, {"measurement": "[3H]CQ transport (% PfCRTDd2 control), trans-stimulation, PfCRTDd2", "setting": "PfCRT^Dd2 [7]; [9]", "result": "100 ± 4.9", "unit": "% PfCRTDd2 control"}, {"measurement": "Uptake of [3H]CQ (% PfCRTEcu1110 control), trans-stimulation", "setting": "PfCRT^Ecu1110 [8]; [test solute]i = 5 mM", "result": "99 ± 3.2", "unit": "% PfCRTEcu1110 control"}, {"measurement": "Uptake of [3H]CQ (% PfCRTEcu1110 control), trans-stimulation", "setting": "PfCRT^Ecu1110 [8]; [9]", "result": "100 ± 3.2", "unit": "% PfCRTEcu1110 control"}, {"measurement": "PfCRT-mediated [3H]CQ transport, trans-stimulation (% PfCRTEcu1110 control)", "setting": "PfCRT^Ecu1110 [8]; [10]", "result": "97 ± 4.1", "unit": "% PfCRTEcu1110 control"}, {"measurement": "PfCRT-mediated [3H]CQ transport, trans-stimulation (% PfCRTEcu1110 control)", "setting": "PfCRT^Ecu1110 [8]; [11]", "result": "98 ± 4.3", "unit": "% PfCRTEcu1110 control"}, {"measurement": "[3H]CQ transport (% PfCRTDd2 control), trans-stimulation, PfCRTEcu1110", "setting": "PfCRT^Ecu1110 [8]; [12]", "result": "29 ± 1.5", "unit": "% PfCRTEcu1110 control"}, {"measurement": "[3H]CQ transport (% PfCRTDd2 control), trans-stimulation, PfCRTEcu1110", "setting": "PfCRT^Ecu1110 [8]; [9]", "result": "30 ± 1.2", "unit": "% PfCRTEcu1110 control"}, {"measurement": "Uptake of [3H]CQ (% PfNT1 control), trans-stimulation", "setting": "PfNT1; [test solute]i = 5 mM", "result": "99 ± 3.2", "unit": "% PfNT1 control"}, {"measurement": "Uptake of [3H]CQ (% PfNT1 control), trans-stimulation", "setting": "PfNT1; [9]", "result": "100 ± 3.7", "unit": "% PfNT1 control"}]}]}
